For the assay, the system named is baby corn seeds. In words: root length developed on baby corn seeds after treatment with homeopathic growth stimulant. In kind it is in vivo. How it is done: The length of roots that developed on the baby corn seeds, after treatment of the seeds with various concentrations of homeopathic growth stimulant, was measured. […] This critical transition indicates a fundamental difference in the chemical structure of the resulting plant enhancement substance by molecular cloistering. The criticality and creation of a chemically different substance brought about by dilution is indicated by the synergy of combining the resulting dilution medium and dissolved homeopathic growth stimulant with a nutrient source such as a fertilizer. This synergy is evidenced by the multiplication of growth increase in target plants resulting from the combination. […] However, treatment of a target plant using a combination of dilution medium and dissolved homeopathic growth stimulant along with a nutrient source increases plant growth tenfold.

The values that follow come from patent publication US20130053245A1, “Method and Substance for Promoting Plant Growth” (World Grow International Corp., priority 2009, published 2013).

Take `O.O.O.O.O.O=S(=O)([O-])[O-].[Cu+2]` [CuSO4, copper sulfate pentahydrate (CuSO4.5H2O)]: under “high concentration”, the root development entry was “arrests root development”. Besides, the “root growth (length of roots)” value reads like this: (higher concentrations of CuSO4 in the homeopathic growth stimulant) “arrest root growth”; (lower concentrations of CuSO4, below the homeopathic barrier or threshold concentration) “enhance root growth”. The root growth result (homeopathic concentration (3-12X potency)) is recorded as “acts as a root growth enhancer”.
